Reference: ChEMBL document CHEMBL1201862, “PubChem BioAssay data set” (2004)
Calls of active or inactive are those of the source.

Columns and labels:
fMet-Leu-Phe receptor = target: T1, fMet-Leu-Phe receptor (Homo sapiens, UniProt P21462); assay: formyl peptide receptor binders – dose response (AID 519); type: functional
T1 sequence (P21462 whole entry): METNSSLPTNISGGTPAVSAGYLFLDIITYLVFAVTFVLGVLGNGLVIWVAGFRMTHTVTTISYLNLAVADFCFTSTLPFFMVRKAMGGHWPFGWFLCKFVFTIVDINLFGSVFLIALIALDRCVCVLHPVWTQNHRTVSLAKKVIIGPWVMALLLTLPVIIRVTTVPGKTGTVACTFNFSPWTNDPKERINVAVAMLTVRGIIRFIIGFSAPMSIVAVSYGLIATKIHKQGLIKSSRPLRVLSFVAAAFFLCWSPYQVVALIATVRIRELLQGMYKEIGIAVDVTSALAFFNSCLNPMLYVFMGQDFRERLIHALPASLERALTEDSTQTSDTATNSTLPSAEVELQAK

Hexokinase HKDC1 [1] = target: T2, Hexokinase HKDC1 (Homo sapiens, UniProt Q2TB90); assay: activation of HKDC1 glucose phosphorylation – biochemical, W721R variant, dose response (AID 504730); type: functional
T2 sequence (Q2TB90 whole entry): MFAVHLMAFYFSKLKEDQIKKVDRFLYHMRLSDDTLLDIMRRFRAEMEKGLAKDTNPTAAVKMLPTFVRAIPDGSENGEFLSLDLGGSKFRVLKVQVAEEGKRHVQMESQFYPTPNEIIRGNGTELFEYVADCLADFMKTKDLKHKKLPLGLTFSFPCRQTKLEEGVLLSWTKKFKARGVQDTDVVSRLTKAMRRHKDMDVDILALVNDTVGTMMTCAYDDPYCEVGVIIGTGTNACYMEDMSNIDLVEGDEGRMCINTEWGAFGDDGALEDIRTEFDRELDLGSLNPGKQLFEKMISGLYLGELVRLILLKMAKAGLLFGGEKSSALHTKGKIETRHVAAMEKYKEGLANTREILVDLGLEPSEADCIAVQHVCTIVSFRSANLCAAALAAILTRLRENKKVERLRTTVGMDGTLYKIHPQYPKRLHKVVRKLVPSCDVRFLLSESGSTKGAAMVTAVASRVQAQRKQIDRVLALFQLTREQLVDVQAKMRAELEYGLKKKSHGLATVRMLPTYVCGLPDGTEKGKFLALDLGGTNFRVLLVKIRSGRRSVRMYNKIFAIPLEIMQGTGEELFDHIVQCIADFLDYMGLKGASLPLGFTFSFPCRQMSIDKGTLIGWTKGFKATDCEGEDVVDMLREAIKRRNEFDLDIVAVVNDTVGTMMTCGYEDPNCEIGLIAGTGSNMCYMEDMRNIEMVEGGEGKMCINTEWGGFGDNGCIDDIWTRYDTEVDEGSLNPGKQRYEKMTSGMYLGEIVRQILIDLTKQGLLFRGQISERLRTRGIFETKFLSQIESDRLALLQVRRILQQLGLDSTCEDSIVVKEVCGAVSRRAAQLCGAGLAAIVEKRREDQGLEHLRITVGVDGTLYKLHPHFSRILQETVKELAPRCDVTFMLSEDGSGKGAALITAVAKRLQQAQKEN

[2] = alpha-synuclein stem-loop luciferase translation blockers – H4 neuroglioma cells, luminescence, confirmation (AID 1988); type: functional, cell-based
[3] = luciferase reporter signal suppression in cells – H4 neuroglioma cells, luminescence, dose response (AID 1990); type: functional, cell-based
J774.A1 = assay: Confirmation of image-based Screening Assay for Inhibitors of Phagocytosis. [Related pubchem assays (depositor defined):AID1029, AID1643]; type: functional, cell-based; settings: Mus musculus
T-cell = assay: loss of vesicle association with mouse CD8+ T cells – mouse 2C CD8+ T cells, flow cytometry, dose response (AID 485284); type: functional
[4] = target: T3, Short transient receptor potential channel 4 (Mus musculus, UniProt Q9QUQ5); assay: potentiation of DAMGO-evoked TRPC4 calcium signal – cell-based, HEK293 TRPC4/mu-opioid, Fluo-4 calcium, EC20 DAMGO, dose response (AID 434941); type: functional
T3 sequence (Q9QUQ5 whole entry): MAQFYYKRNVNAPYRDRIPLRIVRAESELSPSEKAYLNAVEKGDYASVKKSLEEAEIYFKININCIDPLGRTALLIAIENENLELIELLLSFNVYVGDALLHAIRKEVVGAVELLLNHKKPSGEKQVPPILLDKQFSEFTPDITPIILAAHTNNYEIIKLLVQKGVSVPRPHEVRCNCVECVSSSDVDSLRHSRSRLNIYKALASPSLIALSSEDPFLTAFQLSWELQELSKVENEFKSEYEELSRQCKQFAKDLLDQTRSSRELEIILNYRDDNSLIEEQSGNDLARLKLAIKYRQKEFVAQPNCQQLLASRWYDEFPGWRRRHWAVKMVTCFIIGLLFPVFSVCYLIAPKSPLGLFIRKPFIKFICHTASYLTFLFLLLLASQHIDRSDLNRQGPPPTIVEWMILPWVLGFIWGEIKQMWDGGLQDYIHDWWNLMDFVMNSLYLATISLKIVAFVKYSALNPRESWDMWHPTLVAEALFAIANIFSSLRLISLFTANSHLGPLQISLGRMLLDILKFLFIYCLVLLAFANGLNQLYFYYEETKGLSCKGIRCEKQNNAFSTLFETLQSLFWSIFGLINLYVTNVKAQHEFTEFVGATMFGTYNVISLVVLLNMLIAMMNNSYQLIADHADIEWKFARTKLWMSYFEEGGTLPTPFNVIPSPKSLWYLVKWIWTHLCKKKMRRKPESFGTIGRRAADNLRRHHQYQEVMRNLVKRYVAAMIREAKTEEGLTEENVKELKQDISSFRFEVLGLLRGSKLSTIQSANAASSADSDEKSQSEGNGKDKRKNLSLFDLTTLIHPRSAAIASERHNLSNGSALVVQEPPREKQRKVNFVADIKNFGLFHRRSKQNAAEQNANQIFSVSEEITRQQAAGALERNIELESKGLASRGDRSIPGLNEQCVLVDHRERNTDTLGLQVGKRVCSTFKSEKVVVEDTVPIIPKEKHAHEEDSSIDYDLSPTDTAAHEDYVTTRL

[5] = target: T4, Tyrosine-protein phosphatase non-receptor type 22 (Homo sapiens, UniProt Q9Y2R2); type: functional
[6] = target: T5, Tyrosine-protein phosphatase non-receptor type 7 (Homo sapiens, UniProt P35236); type: functional
T5 sequence (P35236 whole entry): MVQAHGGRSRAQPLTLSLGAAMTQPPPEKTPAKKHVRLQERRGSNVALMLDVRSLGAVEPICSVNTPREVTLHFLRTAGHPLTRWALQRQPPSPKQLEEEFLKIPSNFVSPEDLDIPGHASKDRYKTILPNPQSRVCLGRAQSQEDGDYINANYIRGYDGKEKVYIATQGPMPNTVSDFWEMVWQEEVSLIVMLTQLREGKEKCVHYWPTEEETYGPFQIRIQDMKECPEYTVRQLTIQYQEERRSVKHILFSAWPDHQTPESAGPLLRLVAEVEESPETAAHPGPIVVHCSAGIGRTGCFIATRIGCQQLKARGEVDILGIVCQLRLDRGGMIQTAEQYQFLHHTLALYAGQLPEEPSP

[7] = target: T4, Tyrosine-protein phosphatase non-receptor type 22; type: functional; remark: listed apart in the source
[8] = target: T6, Runt-related transcription factor 1/Core-binding factor subunit beta (Homo sapiens, UniProt Q01196+Q13951); assay: disruptors of Runt domain/CBFb-SMMHC interaction – biochemical, FRET, Cerulean-Runt, Venus-CBFb-SMMHC, uHTS, […] (AID 1434); type: protein assay
[9] = target: T6, Runt-related transcription factor 1/Core-binding factor subunit beta; assay: Runt domain/CBFb-SMMHC interaction disruptors – biochemical, TR-FRET (AID 1438); type: protein assay
[10] = target: Eukaryotic translation initiation factor 4H (Homo sapiens, UniProt Q15056); assay: inhibitors of translation initiation factor eIF4H – SAR follow-up (AID 435011); type: functional
Hexokinase HKDC1 [11] = target: T2, Hexokinase HKDC1; assay: inhibition of HKDC1 glucose phosphorylation – biochemical, W721R variant, dose response (AID 504729); type: functional
[12] = target: Polyadenylate-binding protein 1 (Homo sapiens, UniProt P11940); assay: PABP inhibition in translation initiation, SAR follow-up (AID 435018); type: functional
Troponin, cardiac muscle = Troponin, cardiac muscle (Homo sapiens, UniProt P19429+P45379+P63316); assay: Fluorescence-based biochemical high throughput dose response assay for activators of the calcium sensitivity of cardiac Regulated Thin Filaments (RTF). [Related pubchem assays (depositor defined):AID493008, AID493018, AID504382, AID504383]; type: protein-complex assay
[13] = target: Voltage-dependent T-type calcium channel subunit alpha-1H (Homo sapiens, UniProt O95180); assay: human CACNA1H calcium influx blockade – cell-based, synthetic library set 1, calcium flux (AID 493022); type: functional
[14] = target: T5, Tyrosine-protein phosphatase non-receptor type 7; assay: redox-active compounds inhibiting HePTP phosphatase – biochemical, fluorescence, mechanism study (AID 2068); type: functional
Mu-type opioid receptor = Mu-type opioid receptor (Homo sapiens, UniProt P35372); assay: SAR Analysis of Antagonists of the MOR Receptor using an Image-Based Assay - Set 3. [Related pubchem assays (depositor defined):AID1777, AID1785, AID1786, AID1966, AID2133, AID2136, AID2284, AID2285, AID2420]; type: functional
[15] = target: T7, Kappa-type opioid receptor (Homo sapiens, UniProt P41145); assay: SAR analysis of Antagonists of the Kappa Opioid Receptor (KOR) using an Image-Based Assay - Set 4. [Related pubchem assays (depositor defined):AID1777, AID1785]; type: functional
[16] = target: Delta-type opioid receptor (Homo sapiens, UniProt P41143); assay: SAR Analysis of Antagonists of the DOR Receptor using an Image-Based Assay - Set 3. [Related pubchem assays (depositor defined):AID1777, AID1785]; type: functional;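 further: U2OS cells expressing DOR1 and beta-arrestin GFP stimulated with 100 nM SNC80; imaging of GFP-tagged beta-arrestin moving into spots after receptor activation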
[17] = target: T7, Kappa-type opioid receptor; assay: SAR analysis of small molecule antagonists of the kappa opioid receptor via a luminescent beta-arrestin assay - Set 4. [Related pubchem assays (depositor defined):AID1777, AID1778, AID1785, AID1786, AID1966, AID2133, AID2136, AID2285]; type: functional
[18] = target: T7, Kappa-type opioid receptor; assay: SAR analysis of Antagonists of the Kappa Opioid Receptor (KOR) using an Image-Based Assay - Set 3. [Related pubchem assays (depositor defined):AID1777, AID1785]; type: functional
[19] = target: T7, Kappa-type opioid receptor; assay: SAR analysis of small molecule antagonists of the kappa opioid receptor via a luminescent beta-arrestin assay - Set 3. [Related pubchem assays (depositor defined):AID1777, AID1778, AID1785, AID1786, AID1966, AID2133, AID2136, AID2285, AID2495]; type: functional
[20] = target: Eukaryotic translation initiation factor 4E (Mus musculus, UniProt P63073); assay: blockers of eIF4G binding by eIF4E – biochemical, TR-FRET, dose response (AID 855); type: functional;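 further: potency for disrupting eIF4E binding to eIF4GI seen as loss of FRET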
Beta-galactosidase = Beta-galactosidase (Escherichia coli, UniProt Q8VNN2); assay: detection-enzyme interference by beta-gal modulators – biochemical, E. coli enzyme, set 3, artefact control for CCR6 antagonist project, dose response (AID 504712); type: functional
[21] = target: Cystic fibrosis transmembrane conductance regulator/Golgi-associated PDZ and coiled-coil motif-containing protein (Homo sapiens, UniProt P13569+Q9HD26); assay: potency against CAL PDZ-peptide interaction – biochemical, fluorescence polarization, Cerulean-tagged CAL PDZ, cherry-picks, dose response (AID 504773)
[22] = target: Induced myeloid leukemia cell differentiation protein Mcl-1 (Homo sapiens, UniProt Q07820); type: functional
INS1 = assay: INS-1E survival protection against cytokine death – cell-based, luminescence, retest, dose response (AID 449756); type: functional; settings: Rattus norvegicus;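 further: cell death triggered by IL-1 beta plus TNF-alpha plus IFN-gamma mixture; protective hits raise ATP signal compared with cytokine alone wells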

COCc1cc(C2C(C(=O)c3ccco3)=C(O)C(=O)N2CCOCCO)ccc1O (configuration not stated)
Ki (fMet-Leu-Phe receptor): 29.7 µM (inactive) | EC50 (Hexokinase HKDC1 [1]): > 80 µM (inactive)

CCc1ccc(-c2nc(C(N)=O)c3nc(O)n(-c4ccccc4OC)c3n2)cc1
EC50 [2]: 0.185 µM (active) | EC50 [3]: 8.19 µM (active) | IC50 (J774.A1): 12.5 µM (active)

CCCCn1nc(C(=O)N2CCN(S(=O)(=O)c3ccccc3)CC2)c2ccccc2c1=O
EC50 (T-cell): 10.3 µM (active)

O=C(Nc1ccccc1)C1=C[C@H](C2CCCCC2)C[C@H](OCc2ccc(CO)cc2)O1
EC50 [4]: 2.99 µM (active)

CCN(CCO)Cc1csc2ccc(C(C)(C)C)cc12
IC50 [5]: > 79.4 µM (inactive) | IC50 [6]: > 79.4 µM (inactive) | IC50 [7]: > 79.4 µM (inactive)

O=C(NCc1ccccn1)c1cc2c(ccc3ccccc32)oc1=O
IC50 [8]: 1.33 µM (active) | IC50 [9]: > 100 µM (inactive)

COc1ccc(NC(=O)CSc2ccc(-c3ccco3)nn2)cc1OC
IC50 [10]: 73.8 µM (active) | IC50 (Hexokinase HKDC1 [11]): 13.6 µM (active) | IC50 [12]: > 100 µM (inactive)

Cc1ccc(C)c(N2CCN(C(=O)CN3C(S)=NC(C)(C)CC3C)CC2)c1 (configuration not stated)
EC50 (Troponin, cardiac muscle): > 71.5 µM (inactive)

Cc1ccc(-c2nnc(NC(=O)C(C)Oc3ccccc3)o2)cc1C (configuration not stated)
EC50 [13]: 2.6 µM (active)

O=C(NCc1ccco1)Nc1ccc2nc(-c3ccco3)c(-c3ccco3)nc2c1
IC50 [14]: > 50 µM (inactive)

Cc1ccc(S(=O)(=O)NCc2ccc(C(=O)NC3CCCN(Cc4ccccc4)C3)cc2)cc1 (configuration not stated)
IC50 (Mu-type opioid receptor): 6.75 µM (active) | IC50 [15]: > 32 µM (inactive) | IC50 [16]: > 32 µM (inactive) | IC50 [17]: 18.6 µM (inactive)

O=C(NCCN(Cc1ccccc1)Cc1ccccc1)c1ccc(CNS(=O)(=O)c2ccc(Br)cc2)cc1
IC50 [18]: 6.08 µM (active) | IC50 [19]: > 20 µM (inactive) | IC50 (Mu-type opioid receptor): > 32 µM (inactive) | IC50 [16]: > 32 µM (inactive)

CCc1ccc(S(=O)(=O)/N=C2/C=C(Sc3nc[nH]n3)C(=O)c3ccccc32)cc1
IC50 [20]: > 64 µM (inactive) | IC50 (Beta-galactosidase): > 66.6 µM (inactive) | AC50 [21]: 23.1 µM (active) | IC50 (Hexokinase HKDC1 [11]): 2.46 µM (active) | IC50 [22]: 5.9 µM (active) | AC50 (INS1): 7.93 µM (active)
